The source of these data is US20240398812A1 (Caraway Therapeutics, Inc., priority 2021, published 2024).

Holding throughout (type): cell-based
What all share (conditions): Table 3, compounds 201-283

In assay [1] the target is T1, TRPML3 (Homo sapiens, UniProt Q8TDD5).
T1 construct: expressed in transfected cells
T1 sequence (Q8TDD5 1-553): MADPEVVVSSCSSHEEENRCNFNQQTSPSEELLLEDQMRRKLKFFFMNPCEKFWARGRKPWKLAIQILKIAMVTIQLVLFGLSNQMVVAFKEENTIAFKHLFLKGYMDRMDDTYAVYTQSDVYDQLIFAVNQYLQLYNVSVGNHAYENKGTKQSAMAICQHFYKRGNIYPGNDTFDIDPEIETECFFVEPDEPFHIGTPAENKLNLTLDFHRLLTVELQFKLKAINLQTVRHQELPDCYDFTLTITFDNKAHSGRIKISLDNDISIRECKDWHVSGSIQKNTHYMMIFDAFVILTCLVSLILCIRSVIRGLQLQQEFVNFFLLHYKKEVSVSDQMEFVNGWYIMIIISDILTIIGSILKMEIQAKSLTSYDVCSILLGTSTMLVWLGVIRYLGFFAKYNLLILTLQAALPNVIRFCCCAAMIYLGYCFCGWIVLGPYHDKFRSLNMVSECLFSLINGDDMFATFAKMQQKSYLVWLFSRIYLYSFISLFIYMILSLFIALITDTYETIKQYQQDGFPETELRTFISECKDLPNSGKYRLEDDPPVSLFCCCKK
Description: Fluorescent TRPML3 assay (as for TRPML1). A digest of the protocol:
(§1)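 EC50 came from non-linear regression of percent activity, set against on-plate positive and negative controls, using Fluo4 fluorescence (ex 480, em 540 nm). Compounds ran in triplicate from 6 nM to 20 µM final in half-log steps. Doxycycline-induced (0.5 ug/mL) HEK-293 Trex cells expressing surface-directed mutant channel were in 10 mM calcium Ringer's.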

The target in assay [2] is human TRPML1 (Homo sapiens, UniProt Q9GZU1). Description: Fluorescent TRPML1 assay (Fluo4-AM calcium fluorescence, HEK-293 Trex cells). A digest of the protocol:
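Agonist EC50 from non-linear regression of percent activity versus on-plate controls, calcium signal read at 480/540 nm. Compounds spanned 6 nM–20 μM final in triplicate. Cells: doxycycline-induced HEK-293 Trex with cell-surface human TRPML1 mutant, Fluo4-AM loaded, in Ringer's containing 10 mM calcium.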

Assay [3] has as its target T2, TRPML2 (Homo sapiens, UniProt Q8IZK6).
T2 construct: expressed in transfected cells
T2 sequence (Q8IZK6 1-566): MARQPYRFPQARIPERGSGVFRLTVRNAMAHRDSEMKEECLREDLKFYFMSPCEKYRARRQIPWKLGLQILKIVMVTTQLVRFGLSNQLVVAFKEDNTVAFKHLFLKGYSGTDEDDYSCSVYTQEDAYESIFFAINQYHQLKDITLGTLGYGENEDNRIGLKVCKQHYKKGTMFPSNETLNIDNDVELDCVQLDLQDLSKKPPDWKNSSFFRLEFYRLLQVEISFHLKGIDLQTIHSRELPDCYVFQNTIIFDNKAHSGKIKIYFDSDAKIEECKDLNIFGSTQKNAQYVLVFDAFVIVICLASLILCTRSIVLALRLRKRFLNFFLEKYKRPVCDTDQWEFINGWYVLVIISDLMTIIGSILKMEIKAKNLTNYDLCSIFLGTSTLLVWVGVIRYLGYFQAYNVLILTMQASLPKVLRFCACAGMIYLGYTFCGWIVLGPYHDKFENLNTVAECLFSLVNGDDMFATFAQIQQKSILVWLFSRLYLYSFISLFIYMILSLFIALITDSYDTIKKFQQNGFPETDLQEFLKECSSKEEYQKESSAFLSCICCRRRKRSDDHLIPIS
The experiment in a line: Fluorescent TRPML2 assay (as for TRPML1). The procedure, abridged:
as §1

Sequence of human TRPML1 (Q9GZU1 whole entry L15A/L16A/L577A/L578A, form open): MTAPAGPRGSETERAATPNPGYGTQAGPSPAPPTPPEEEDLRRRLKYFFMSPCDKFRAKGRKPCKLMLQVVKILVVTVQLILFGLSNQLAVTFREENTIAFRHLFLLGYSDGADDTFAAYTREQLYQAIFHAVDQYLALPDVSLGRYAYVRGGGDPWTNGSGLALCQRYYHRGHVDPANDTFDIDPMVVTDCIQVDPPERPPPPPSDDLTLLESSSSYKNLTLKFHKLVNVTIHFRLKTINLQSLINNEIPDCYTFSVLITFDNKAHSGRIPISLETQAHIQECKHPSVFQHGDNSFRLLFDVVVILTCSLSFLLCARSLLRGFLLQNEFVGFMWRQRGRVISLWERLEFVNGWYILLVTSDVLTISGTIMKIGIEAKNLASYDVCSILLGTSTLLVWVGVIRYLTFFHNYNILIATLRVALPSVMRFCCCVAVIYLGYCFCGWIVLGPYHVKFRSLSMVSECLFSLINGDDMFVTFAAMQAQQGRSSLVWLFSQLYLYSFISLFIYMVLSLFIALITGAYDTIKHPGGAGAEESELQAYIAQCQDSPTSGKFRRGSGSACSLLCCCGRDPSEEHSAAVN

In general, EC50 refers to the concentration giving half of the maximal effect. With `C[C@@H]1CN(c2ncnc3c2c(C2CCC2)cn3-c2cccc(F)c2)[C@@H](C)CN1C(=O)C(C)(C)C(F)(F)F` [Compound 252, 1-((2R,5S)-4-(5-cyclobutyl-7-(3-fluorophenyl)-7H-pyrrolo[2,3-d]pyrimidin-4-yl)-2,5-dimethylpiperazin-1-yl)-3,3,3-trifluoro-2,2-dimethylpropan-1-one], the EC50 in assay [1] lay in the range of 100 to 500 nM; in assay [2], 100 to 500 nM; in assay [3] it was 500 to 2000 nM.

`C[C@@H]1CN(c2ncnc3c2c(C2CCC2)cn3-c2cccc(Cl)c2)[C@@H](C)CN1C(=O)C(C)(C)C` [Compound 253, 1-((2R,5S)-4-(7-(3-chlorophenyl)-5-cyclobutyl-7H-pyrrolo[2,3-d]pyrimidin-4-yl)-2,5-dimethylpiperazin-1-yl)-2,2-dimethylpropan-1-one]: the EC50 in assay [1] is 100 to 500 nM; in assay [2], below 100 nM; in assay [3] it was 500 to 2000 nM.

Turning to `C[C@@H]1CN(c2ncnc3c2c(C2CCC2)cn3-c2cc(F)cc(F)c2)[C@@H](C)CN1C(=O)C(C)(C)C` [Compound 255, 1-((2R,5S)-4-(5-cyclobutyl-7-(3,5-difluorophenyl)-7H-pyrrolo[2,3-d]pyrimidin-4-yl)-2,5-dimethylpiperazin-1-yl)-2,2-dimethylpropan-1-one], the EC50 is 500 to 2000 nM in assay [1], 500 to 2000 nM in assay [2] and above 2000 nM in assay [3].

Turning to `C[C@@H]1CN(c2ncnc3c2c(C2CCC2)cn3-c2cc(F)cc(F)c2)[C@@H](C)CN1C(=O)CC(C)(C)C(F)(F)F` [Compound 256, 1-((2R,5S)-4-(5-cyclobutyl-7-(3,5-difluorophenyl)-7H-pyrrolo[2,3-d]pyrimidin-4-yl)-2,5-dimethylpiperazin-1-yl)-4,4,4-trifluoro-3,3-dimethylbutan-1-one], the EC50 is 500 to 2000 nM in assay [1], 500 to 2000 nM in assay [2] and above 2000 nM in assay [3].

As for `C[C@@H]1CN(c2ncnc3c2c(C2CCC2)cn3-c2cccc(Cl)c2)[C@@H](C)CN1C(=O)C(C)(C)C(F)(F)F` [Compound 257, 1-((2R,5S)-4-(7-(3-chlorophenyl)-5-cyclobutyl-7H-pyrrolo[2,3-d]pyrimidin-4-yl)-2,5-dimethylpiperazin-1-yl)-3,3,3-trifluoro-2,2-dimethylpropan-1-one], the EC50 in assay [1] was 500 to 2000 nM; in assay [2] it was below 100 nM; in assay [3], 100 to 500 nM.

Turning to `C[C@@H]1CN(c2ncnc3c2c(C2CCC2)cn3-c2cccc(Cl)c2)[C@@H](C)CN1C(=O)CC(C)(C)C(F)(F)F` [Compound 258, 1-((2R,5S)-4-(7-(3-chlorophenyl)-5-cyclobutyl-7H-pyrrolo[2,3-d]pyrimidin-4-yl)-2,5-dimethylpiperazin-1-yl)-4,4,4-trifluoro-3,3-dimethylbutan-1-one], the results for the 50% effective concentration (EC50) in assay [1], in assay [2] and in assay [3] were 100 to 500 nM, 100 to 500 nM and 500 to 2000 nM, respectively.

`C[C@@H]1CN(c2ncnc3c2c(C2CCC2)cn3-c2cc(F)cc(F)c2)[C@@H](C)CN1C(=O)C(C)(C)C(F)(F)F` [Compound 259, 1-((2R,5S)-4-(5-cyclobutyl-7-(3,5-difluorophenyl)-7H-pyrrolo[2,3-d]pyrimidin-4-yl)-2,5-dimethylpiperazin-1-yl)-3,3,3-trifluoro-2,2-dimethylpropan-1-one]: the EC50 lay in the range of 100 to 500 nM in assay [1], 100 to 500 nM in assay [2] and 500 to 2000 nM in assay [3].

With `C[C@@H]1CN(c2ncnc3c2c(C2CCC2)cn3-c2cccc(C(F)(F)F)c2)[C@@H](C)CN1C(=O)C1(F)CC1` [Compound 260, ((2R,5S)-4-(5-cyclobutyl-7-(3-(trifluoromethyl)phenyl)-7H-pyrrolo[2,3-d]pyrimidin-4-yl)-2,5-dimethylpiperazin-1-yl)(1-fluorocyclopropyl)methanone], the 50% effective concentration (EC50) in assay [1] is 500 to 2000 nM; in assay [2], 100 to 500 nM; in assay [3], above 2000 nM.

Regarding `C[C@@H]1CN(c2ncnc3c2c(C2CCC2)cn3-c2cccc(C(F)(F)F)c2)[C@@H](C)CN1C(=O)C(C)(C)C` [Compound 261, 1-((2R,5S)-4-(5-cyclobutyl-7-(3-(trifluoromethyl)phenyl)-7H-pyrrolo[2,3-d]pyrimidin-4-yl)-2,5-dimethylpiperazin-1-yl)-2,2-dimethylpropan-1-one], the EC50 in assay [1] was 500 to 2000 nM; in assay [2], below 100 nM; in assay [3], above 2000 nM.

As for `C[C@@H]1CN(c2ncnc3c2c(C2CCC2)cn3-c2cccc(C(F)(F)F)c2)[C@@H](C)CN1C(=O)CC(C)(C)C(F)(F)F` [Compound 262, 1-((2R,5S)-4-(5-cyclobutyl-7-(3-(trifluoromethyl)phenyl)-7H-pyrrolo[2,3-d]pyrimidin-4-yl)-2,5-dimethylpiperazin-1-yl)-4,4,4-trifluoro-3,3-dimethylbutan-1-one], the EC50 lay in the range of 500 to 2000 nM in assay [1], 100 to 500 nM in assay [2] and 500 to 2000 nM in assay [3].

In the case of `C[C@@H]1CN(c2ncnc3c2c(C2CCC2)cn3-c2cccc(C(F)(F)F)c2)[C@@H](C)CN1C(=O)C(C)(C)C(F)(F)F` [Compound 263, 1-((2R,5S)-4-(5-cyclobutyl-7-(3-(trifluoromethyl)phenyl)-7H-pyrrolo[2,3-d]pyrimidin-4-yl)-2,5-dimethylpiperazin-1-yl)-3,3,3-trifluoro-2,2-dimethylpropan-1-one], the EC50 in assay [1] is below 100 nM; in assay [2], 100 to 500 nM; in assay [3], 500 to 2000 nM.

As for `COC(C)(C)C(=O)N1C[C@H](C)N(c2ncnc3c2c(C2CC2)cn3-c2cc(C#N)ccn2)C[C@H]1C` [Compound 264, 2-(5-cyclopropyl-4-((2S,5R)-4-(2-methoxy-2-methylpropanoyl)-2,5-dimethylpiperazin-1-yl)-7H-pyrrolo[2,3-d]pyrimidin-7-yl)isonicotinonitrile], the EC50 in assay [1] was below 100 nM; in assay [2], below 100 nM; in assay [3] it was 500 to 2000 nM.

Turning to `COC(C)(C)C(=O)N1CCN(c2ncnc3c2c(C2CC2)cn3-c2cc(C#N)ccn2)C[C@H]1C` [Compound 265, (R)-2-(5-cyclopropyl-4-(4-(2-methoxy-2-methylpropanoyl)-3-methylpiperazin-1-yl)-7H-pyrrolo [2,3-d]pyrimidin-7-yl)isonicotinonitrile], the EC50 in assay [1] was below 100 nM; in assay [2], below 100 nM; in assay [3], 100 to 500 nM.

For the compound `COC(C)(C)C(=O)N1CCN(c2ncnc3c2c(-c2ccccc2F)cn3-c2cc(C#N)ccn2)C[C@H]1C` [Compound 266, (R)-2-(5-(2-fluorophenyl)-4-(4-(2-methoxy-2-methylpropanoyl)-3-methylpiperazin-1-yl)-7H-pyrrolo[2,3-d]pyrimidin-7-yl)isonicotinonitrile], the EC50 in assay [1] is below 100 nM; in assay [2], below 100 nM; in assay [3] it was 100 to 500 nM.

Consider `COC1(C(=O)N2C[C@H](C)N(c3ncnc4c3c(-c3ccccc3F)cn4-c3cc(C#N)ccn3)C[C@H]2C)CC1` [Compound 267, 2-(5-(2-fluorophenyl)-4-((2S,5R)-4-(1-methoxycyclopropane-1-carbonyl)-2,5-dimethylpiperazin-1-yl)-7H-pyrrolo [2,3-d]pyrimidin-7-yl)isonicotinonitrile], for which the EC50 in assay [1] was below 100 nM; in assay [2], below 100 nM; in assay [3], 100 to 500 nM.

On to `COC(C)(C)C(=O)N1C[C@H](C)N(c2ncnc3c2c(N2CCC2)cn3-c2cc(C#N)ccn2)C[C@H]1C` [Compound 268, 2-(5-(azetidin-1-yl)-4-((2S,5R)-4-(2-methoxy-2-methylpropanoyl)-2,5-dimethylpiperazin-1-yl)-7H-pyrrolo[2,3-d]pyrimidin-7-yl)isonicotinonitrile], for which the EC50 is below 100 nM in assay [1], below 100 nM in assay [2] and 500 to 2000 nM in assay [3].
